Patent US11400080B2, “Use of sirolimus to treat exudative age-related macular degeneration with persistent edema” (Santen Pharmaceutical Co., Ltd., priority 2016, dated 2022)

Legend:
[1] = test system: persistent edema due to neovascular AMD; assay: Example 2: randomized, subject-masked trial of intravitreal sirolimus plus anti-VEGF (aflibercept) versus anti-VEGF alone (OCT CST and BCVA); format: in vivo, human
Excerpt: This study was a single-center, randomized, subject-masked trial over the course of […] with eleven scheduled visits. Study Population. Twenty human patients, who were 50 years of age or older at baseline were recruited according to the following inclusion and exclusion criteria. If both eyes met all of the inclusion/exclusion criteria the eye with the best potential for visual improvement (worse BCVA) at baseline was selected as the study eye. If both eyes met all of the inclusion/exclusion criteria and BCVA values were identical for both eyes, the right eye was selected as the study eye. Study Treatment (Group 1). […] Intravitreal injections of EYL (aflibercept) given at weeks 1, 8, 16, 24 and 32. […] Comparator Treatment (Group 2). Intravitreal injection of EYL (aflibercept) given at baseline and weeks 8, 16, 24 and 32. […] Both intraocular pressure and the perfusion of the optic nerve head were monitored and managed appropriately after injection. […] Retreatment Criteria: Subjects in both groups received retreatment (or sham) at each scheduled visit as long as continued subretinal edema, intraretinal edema or active choroidal neovascularization was present. change in edema from baseline to week 36 as measured by CST on Heidelberg OCT. change in BCVA from baseline to week 36; and number of injections required to control choroidal neovascularization based on volume of subretinal fluid.

[2] = test system: exudative AMD with persistent intraretinal or subretinal edema despite previous intravitreal anti-VEGF treatment; assay: Example 1: randomized, subject-masked trial of intravitreal sirolimus versus anti-VEGF (OCT CST and BCVA); format: in vivo, human; details: baseline to months 3-6, subjects who completed the study through month 6, FIG. 2 and FIG. 4
Excerpt: This study was a single-center, randomized, subject-masked trial over the course of six months with eight scheduled visits. Study Population. Thirty human patients, who were 50 years of age or older at baseline were recruited according to the following inclusion and exclusion criteria. If both eyes met all of the inclusion/exclusion criteria the eye with the worse BCVA at baseline was selected as the study eye. If both eyes met all of the inclusion/exclusion criteria and BCVA values were identical for both eyes, the right eye was selected as the study eye. Study Treatment (Group 1). […] Sham intravitreal injection given at month 1, month 3 and month 5. […] Intravitreal injection of anti-VEGF per patient/investigator choice (pegaptanib, aflibercept, bevacizumab or ranibizumab) given at baseline and thereafter monthly per clinical criteria. Sham intravitreal injections given when retreatment criterion was not met at month 1 or any later visit. […] Both intraocular pressure and the perfusion of the optic nerve head were monitored and managed appropriately after injection. […] The primary efficacy endpoint includes change in edema from baseline to month 6 as measured by CST on Heidelberg OCT. change in BCVA from baseline to month 6; Continuous variables will be summarized with means and standard deviations and medians with min and max values and categorical variables with frequencies and percentages. […]

Molecule | subjects in whom the need for anti-VEGF treatment to control edema was reduced ([1]; combination group, ten patients, EYL injections deferred (sham)) [%] | average change in edema from baseline (central subfield thickness, CST, by OCT) [2] | improvement in visual acuity (BCVA) ([1]; change from baseline, FIG. 5)
CO[C@H]1C[C@@H]2CC[C@@H](C)[C@@](O)(O2)C(=O)C(=O)N2CCCC[C@H]2C(=O)O[C@H]([C@H](C)C[C@@H]2CC[C@@H](O)[C@H](OC)C2)CC(=O)[C@H](C)/C=C(\C)[C@@H](O)[C@@H](OC)C(=O)[C@H](C)C[C@H](C)/C=C/C=C/C=C/1C [sirolimus] | 40 | −30 to −40 | 
aflibercept [EYL] |  |  | +0.8 letters
